Source: patent publication US8293774B2, “Optically active (R)-aryloxypropionic acid amides and herbicidal composition comprising same” (Kyung Nong Corporation, priority 2007, dated 2012)

Columns and labels:
rice (Nampyung rice) = assay: Foliage treatment with emulsions, dry rice field conditions, harmful effect on rice (Test Example 2, Table 9); assay type: in vivo; settings: 6~6.5-leaf stage, 150 g a.i./ha, emulsion; for Harmful effect, 20 days: 20 days after foliage treatment; for Harmful effect, 30 days: 30 days after foliage treatment
From the text: (§1) Seeds of rice (Nampyung rice) and barnyard grasses (Echinochloa oryzicola and Echinochloa crus-galli var. crus-galli) were placed in sandy loam of pots, covered with soil, and grown in the dry rice field conditions.

[1] = test system: PANDI (Panium dichotomiflorum Michx, fall panicum); assay: Weed control test, foliage treatment (Test Example 1, Table 7); assay type: in vivo; settings: Panicum dichotomiflorum, foliar, read-out: Plant damage (herbicidal activity), visually evaluated, PANDI; for pest or weed control at 25 g/ha: 0.025 kg/ha; for pest or weed control at 100 g/ha: 0.1 kg/ha; for pest or weed control at 200 g/ha: 0.2 kg/ha
Method in brief: (§2)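 Plants are raised from seed in sandy loam in a greenhouse at 20 to 30° C. When barnyard grass reaches the 3-leaf stage, the foliage receives 2,000 l/ha of a diluted emulsion containing compound, acetone and Tween 80. Damage is judged by eye against untreated controls after 10 and 20 days.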

[2] = test system: SETVIR (Setaria viridis (L.) Beauv, green foxtail); assay: as above; assay type: in vivo; settings: Setaria viridis, foliar, read-out: Plant damage (herbicidal activity), visually evaluated, SETVIR; for pest or weed control at 25 g/ha: 0.025 kg/ha; for pest or weed control at 100 g/ha: 0.1 kg/ha; for pest or weed control at 200 g/ha: 0.2 kg/ha
Method in brief: as §2

[3] = test system: ECHOG (Echinoch crus-galli Beauv. var. caudata Kitagawa, barnyard grass); assay: as above; assay type: in vivo; settings: Echinochloa crus-galli, foliar, 3-leaf stage, read-out: Plant damage (herbicidal activity), visually evaluated, ECHOG; for pest or weed control at 25 g/ha: 0.025 kg/ha; for pest or weed control at 100 g/ha: 0.1 kg/ha; for pest or weed control at 200 g/ha: 0.2 kg/ha
Method in brief: as §2

[4] = test system: ZEAMX (Zea mays L., corn); assay: as above; assay type: in vivo; settings: Zea mays, foliar, read-out: Plant damage (herbicidal activity), visually evaluated, ZEAMX; for plant injury at 25 g/ha: 0.025 kg/ha; for plant injury at 100 g/ha: 0.1 kg/ha; for plant injury at 200 g/ha: 0.2 kg/ha
Method in brief: as §2

[5] = test system: DIGSA (Digitaria Sanguinalis (L.) SCOP, large crabgrass); assay: as above; assay type: in vivo; settings: Digitaria sanguinalis, foliar, read-out: Plant damage (herbicidal activity), visually evaluated, DIGSA; for pest or weed control at 25 g/ha: 0.025 kg/ha; for pest or weed control at 100 g/ha: 0.1 kg/ha; for pest or weed control at 200 g/ha: 0.2 kg/ha
Method in brief: as §2

[6] = test system: ARTHIS (Arthraxon hispidus (Thunb.) Makino, creek grass); assay: as above; assay type: in vivo; settings: Arthraxon hispidus, foliar, read-out: Plant damage (herbicidal activity), visually evaluated, ARTHIS; for pest or weed control at 25 g/ha: 0.025 kg/ha; for pest or weed control at 100 g/ha: 0.1 kg/ha; for pest or weed control at 200 g/ha: 0.2 kg/ha
Method in brief: as §2

[7] = test system: SORBI (Andropogon sorghum, common sorgum); assay: as above; assay type: in vivo; settings: Sorghum bicolor, foliar, read-out: Plant damage (herbicidal activity), visually evaluated, SORBI; for pest or weed control at 25 g/ha: 0.025 kg/ha; for pest or weed control at 100 g/ha: 0.1 kg/ha; for pest or weed control at 200 g/ha: 0.2 kg/ha
Method in brief: as §2

Echinochloa oryzicola = assay: Foliage treatment with emulsions, dry rice field conditions (Test Example 2, Table 9); assay type: in vivo; settings: 150 g a.i./ha; emulsion of Formulation Example 3; division stage 1~2; 20 days after foliage treatment
From the text: as §1
(§3) Rice (6˜6.5-leaf stage, plant height 33.2 cm) and barnyard grasses (Echinochloa oryzicola: division stage 1˜2, plant height 38.0 cm, Echinochloa crus-galli var. crus-galli: division stage 1˜2, plant height 44.1 cm) were subjected to a foliage treatment with emulsions prepared according to Formulation Example 3 by using compounds of Examples 1, 5 and 13 (purity: 99% or more), wherein the emulsions were sprayed to the plants at a dosage of the active compound of 150 g/ha.
(§4) The herbicidal effect on the barnyard grasses and harmful effect on the rice of the test compounds at 20 days and 30 days after the foliage treatment were visually evaluated as in Test Example 1 in comparison with the untreated control, and the results are shown in Table 9.

[8] = test system: Echinochloa crus-galli var. crus-galli; assay: as above; assay type: in vivo; settings: 150 g a.i./ha; emulsion of Formulation Example 3; division stage 1~2; 20 days after foliage treatment
From the text: as §1, §3, §4

[9] = test system: GLXMA (Glycine max(L.) MERR, soy bean); assay: Weed control test, foliage treatment (Test Example 1, Table 7); settings: in vivo
[10] = test system: HORVU (Hordeum vulgare L., barley); assay: as above; settings: in vivo
[11] = test system: TRZAW (Tritium aestivum L., wheat); assay: as above; settings: in vivo
[12] = test system: ORYSA (Oryza sativa cv. Dongjin, rice); assay: as above; settings: in vivo
Rice = assay: Weed control test, 4-leaf stage plants (Test Example 1, Table 8); settings: in vivo
Protocol: Seeds of rice, wheat, soy bean, barley, corn, common sorgum, barnyard grass, large crabgrass, creek grass, green foxtail and fall panicum were placed in sandy loam in 600 cm^2 pots and covered with soil. After keeping the pots in a greenhouse at 20 to 30° C. allowing growth of the plants to the 3-leaf stage of the barnyard grass, 2,000 l/ha of an emulsion obtained by diluting with water a mixture of 1 part by weight of a test compound, 5 parts by weight of acetone and 1 part by weight of an emulsifying agent (Tween 80, Junsei) was applied to the surface of the foliage of the plants. The plant damage at 10 days and 20 days after the foliage treatment was visually evaluated from the level of 1 to 100% by comparison with the untreated control: […]

Barnyard grass = assay: as above; assay type: in vivo, Echinoch crus-galli Beauv. var. caudata Kitagawa

Row | Compound | Harmful effect, 20 days (rice (Nampyung rice)) [%] | Harmful effect, 30 days (rice (Nampyung rice)) [%] | pest or weed control at 25 g/ha [1] [%] | pest or weed control at 100 g/ha [1] [%] | pest or weed control at 200 g/ha [1] [%] | pest or weed control at 25 g/ha [2] [%] | pest or weed control at 100 g/ha [2] [%] | pest or weed control at 200 g/ha [2] [%] | pest or weed control at 25 g/ha [3] [%] | pest or weed control at 100 g/ha [3] [%] | pest or weed control at 200 g/ha [3] [%] | plant injury at 25 g/ha [4] [%] | plant injury at 100 g/ha [4] [%] | plant injury at 200 g/ha [4] [%] | pest or weed control at 25 g/ha [5] [%] | pest or weed control at 100 g/ha [5] [%] | pest or weed control at 200 g/ha [5] [%] | pest or weed control at 25 g/ha [6] [%] | pest or weed control at 100 g/ha [6] [%] | pest or weed control at 200 g/ha [6] [%] | further results
1 | C[C@@H](Oc1ccc(Oc2nc3ccc(Cl)cc3o2)cc1)C(=O)Nc1nc2cc(Cl)ccc2o1 [Example 1, (R)-2-[4-(6-chloro-2-benzoxazolyloxy)phenoxy]propionic acid-N-(5-chloro-2-benzoxazolyl)amide] | 0 | 0 | 90 | 100 | 100 | 70 | 100 | 100 | 95 | 100 | 100 | 30 | 100 | 100 | 90 | 100 | 100 | 70 | 100 | 100 | pest or weed control at 25 g/ha [7]: 60%; pest or weed control at 100 g/ha [7]: 100%; pest or weed control at 200 g/ha [7]: 100%; Herbicidal effect (0~100), 20 days, Echinochloa oryzicola (Echinochloa oryzicola): 100%; Herbicidal effect (0~100), 20 days, Echinochloa crus-galli var. crus-galli [8]: 100%; Plant damage (herbicidal activity), visually evaluated, GLXMA [9]: 0%; Plant damage (herbicidal activity), visually evaluated, HORVU [10]: 0%; Plant damage (herbicidal activity), visually evaluated, TRZAW [11]: 0%; Plant damage (herbicidal activity), visually evaluated, ORYSA [12]: 0%; Plant damage (herbicidal activity), visually evaluated, Rice (Rice): 0%; Plant damage (herbicidal activity), visually evaluated, Barnyard grass (Barnyard grass; 0.025 kg/ha): 70%; Plant damage (herbicidal activity), visually evaluated, Barnyard grass (Barnyard grass; 0.05 kg/ha): 90%; Plant damage (herbicidal activity), visually evaluated, Barnyard grass (Barnyard grass; 0.1 kg/ha): 100%; Plant damage (herbicidal activity), visually evaluated, Barnyard grass (Barnyard grass; 0.4 kg/ha): 100%
2 | C[C@@H](Oc1ccc(Oc2nc3ccc(Cl)cc3o2)cc1)C(=O)Nc1nc2ccccc2s1 [Example 5, (R)-2-[4-(6-chloro-2-benzoxazolyloxy)phenoxy]propionic acid-N-(2-benzothiazolyl)amide] | 0 | 0 | 90 | 100 | 100 | 80 | 100 | 100 | 95 | 100 | 100 | 60 | 100 | 100 | 95 | 100 | 100 | 40 | 100 | 100 | pest or weed control at 25 g/ha [7]: 25%; pest or weed control at 100 g/ha [7]: 100%; pest or weed control at 200 g/ha [7]: 100%; Herbicidal effect (0~100), 20 days, Echinochloa oryzicola (Echinochloa oryzicola): 100%; Herbicidal effect (0~100), 20 days, Echinochloa crus-galli var. crus-galli [8]: 100%; Plant damage (herbicidal activity), visually evaluated, GLXMA [9]: 0%; Plant damage (herbicidal activity), visually evaluated, TRZAW [11]: 0%; Plant damage (herbicidal activity), visually evaluated, Rice (Rice): 0%; Plant damage (herbicidal activity), visually evaluated, Barnyard grass (Barnyard grass; 0.025 kg/ha): 70%; Plant damage (herbicidal activity), visually evaluated, Barnyard grass (Barnyard grass; 0.05 kg/ha): 95%; Plant damage (herbicidal activity), visually evaluated, Barnyard grass (Barnyard grass; 0.1 kg/ha): 100%; Plant damage (herbicidal activity), visually evaluated, Barnyard grass (Barnyard grass; 0.4 kg/ha): 100%
